Assay [1] deals with Mer (Homo sapiens (Human), UniProt Q12866). The assay is described as follows: Microfluidic Capillary Electrophoresis (MCE) kinase activity assay, Mer. The class given is biochemical.
Assay [2] deals with Tyro3 (Homo sapiens (Human), UniProt Q06418). The assay is described as follows: Microfluidic Capillary Electrophoresis (MCE) kinase activity assay, Tyro3. The class given is biochemical.
Setting [3] is: MCE assay, Mer 2.0 nM, ATP 5.0 uM (at Km), 1.0 μM fluorescent substrate, 180 min incubation.
The mark [4] stands for this setting: MCE assay, Tyro 10 nM, ATP 21 uM (at Km), 1.0 μM fluorescent substrate, 180 min incubation.

Molecules are shown by their SMILES. Like-named read-outs stand apart in the source and are kept apart here.

Sequence of Mer (Q12866 21-999): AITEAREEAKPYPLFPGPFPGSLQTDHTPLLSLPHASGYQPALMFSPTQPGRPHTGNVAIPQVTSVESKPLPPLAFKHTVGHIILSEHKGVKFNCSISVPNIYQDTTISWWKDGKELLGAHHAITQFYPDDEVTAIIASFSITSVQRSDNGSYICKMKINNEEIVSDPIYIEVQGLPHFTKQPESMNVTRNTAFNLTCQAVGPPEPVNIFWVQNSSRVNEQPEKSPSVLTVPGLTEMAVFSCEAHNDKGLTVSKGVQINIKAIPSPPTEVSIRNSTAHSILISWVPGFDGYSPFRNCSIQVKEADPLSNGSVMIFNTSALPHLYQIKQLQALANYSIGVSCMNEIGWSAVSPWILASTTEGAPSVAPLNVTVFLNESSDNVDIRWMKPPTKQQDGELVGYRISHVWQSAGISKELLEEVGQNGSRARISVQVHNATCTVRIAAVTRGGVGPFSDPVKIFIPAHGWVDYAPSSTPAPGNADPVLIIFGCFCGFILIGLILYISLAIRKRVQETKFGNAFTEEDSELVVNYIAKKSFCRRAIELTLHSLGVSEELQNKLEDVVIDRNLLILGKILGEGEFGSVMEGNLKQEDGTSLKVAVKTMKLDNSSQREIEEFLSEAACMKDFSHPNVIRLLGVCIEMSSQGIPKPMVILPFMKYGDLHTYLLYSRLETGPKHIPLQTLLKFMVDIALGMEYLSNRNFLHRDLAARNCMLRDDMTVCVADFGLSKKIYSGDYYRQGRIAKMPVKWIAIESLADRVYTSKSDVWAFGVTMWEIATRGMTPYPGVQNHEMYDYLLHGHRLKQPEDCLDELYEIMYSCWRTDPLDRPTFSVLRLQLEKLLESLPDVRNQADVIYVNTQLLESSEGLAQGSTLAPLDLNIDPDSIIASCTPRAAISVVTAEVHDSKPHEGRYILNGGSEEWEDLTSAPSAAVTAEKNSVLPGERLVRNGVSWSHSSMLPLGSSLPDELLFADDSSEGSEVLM
Sequence of Tyro3 (Q06418 41-890): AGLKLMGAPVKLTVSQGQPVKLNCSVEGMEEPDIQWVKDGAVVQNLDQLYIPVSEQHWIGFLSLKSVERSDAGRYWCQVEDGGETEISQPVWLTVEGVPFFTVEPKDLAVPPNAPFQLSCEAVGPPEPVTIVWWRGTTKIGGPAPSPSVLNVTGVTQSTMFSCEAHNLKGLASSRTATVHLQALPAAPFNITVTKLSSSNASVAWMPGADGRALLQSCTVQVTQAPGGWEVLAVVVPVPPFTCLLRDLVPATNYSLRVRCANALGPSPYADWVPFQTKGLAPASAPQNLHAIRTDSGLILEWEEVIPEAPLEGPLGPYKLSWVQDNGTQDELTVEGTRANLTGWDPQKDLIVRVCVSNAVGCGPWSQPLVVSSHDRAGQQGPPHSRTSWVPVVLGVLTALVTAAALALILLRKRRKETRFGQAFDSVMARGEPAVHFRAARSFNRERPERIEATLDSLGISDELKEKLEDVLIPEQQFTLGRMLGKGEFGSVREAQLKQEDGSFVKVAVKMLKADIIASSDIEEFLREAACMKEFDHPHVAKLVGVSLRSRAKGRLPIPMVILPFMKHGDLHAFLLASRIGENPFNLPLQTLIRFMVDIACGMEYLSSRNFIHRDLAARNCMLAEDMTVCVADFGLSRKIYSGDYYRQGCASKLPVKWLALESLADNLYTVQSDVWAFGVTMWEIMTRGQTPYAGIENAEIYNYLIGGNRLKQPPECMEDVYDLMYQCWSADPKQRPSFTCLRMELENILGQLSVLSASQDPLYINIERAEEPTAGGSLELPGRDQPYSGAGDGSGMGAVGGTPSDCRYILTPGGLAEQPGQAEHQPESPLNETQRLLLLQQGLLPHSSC

In the case of `COc1cccc(Nc2ncc(C3CCN(C(=O)C4CCCC4)CC3)c(N[C@H]3CC[C@H](O)CC3)n2)c1` [Compound 1, cyclopentyl(4-(4-((trans-4-hydroxycyclohexyl)amino)-2-((3-methoxyphenyl)amino)pyrimidin-5-yl)piperidin-1-yl)methanone], the concentration for half-maximal inhibition (IC50) in assay [1] and in assay [2] was 0.1 to 1 µM throughout.
On to `COc1cc(Nc2ncc(C3CCN(C(=O)OC(C)(C)C)CC3)c(N[C@H]3CC[C@H](O)CC3)n2)ccn1` [Compound 2], for which the concentration for half-maximal inhibition (IC50) in assay [1] and in assay [2] was 0.01 to 0.1 µM in each case.
Take `COc1cccc(Nc2ncc(C3CCN(CC4CCCC4)CC3)c(N[C@H]3CC[C@H](O)CC3)n2)c1` [Compound 4, trans-4-((5-(1-(cyclopentylmethyl)piperidin-4-yl)-2-((3-methoxyphenyl)amino)pyrimidin-4-yl)amino)cyclohexan-1-ol]: the half-maximal inhibitory concentration (IC50) in assay [1] (setting [3]) is less than 0.01 µM; in assay [2], 0.01 to 0.1 µM.
The like results for `COc1cc(Nc2ncc(C3CCN(CC4CCCC4)CC3)c(N[C@H]3CC[C@H](O)CC3)n2)ccn1` [Compound 5] were, in that order, less than 0.01 µM and 0.01 to 0.1 µM.
In the case of `COc1cc(Nc2ncc(C3CCN(C)CC3)c(N[C@H]3CC[C@H](O)CC3)n2)ccn1` [Compound 6], the 50% inhibitory concentration (IC50) in assay [1] and in assay [2] was 0.01 to 0.1 µM throughout.
`Cc1cc(Nc2ncc(C3CCNCC3)c(N[C@H]3CC[C@H](O)CC3)n2)ccn1` [Compound 8]: the half-inhibitory concentration (IC50) in assay [1] and in assay [2] was 0.01 to 0.1 µM each time.
Turning to `O[C@H]1CC[C@H](Nc2nc(Nc3ccnc(Cl)c3)ncc2C2CCNCC2)CC1` [Compound 9], the half-maximal inhibitory concentration (IC50) in assay [1] and in assay [2] was 0.01 to 0.1 µM throughout.
Consider `Cc1cc(Nc2ncc(C3CCNCC3)c(N[C@H]3CC[C@H](O)CC3)n2)cc(C)n1` [Compound 10], for which the IC50 in assay [1] was in the range of 1 to 30 µM; in assay [2] it was 0.01 to 0.1 µM.
Regarding `Cc1cc(Nc2ncc(C3CCN(C4CCCC4)CC3)c(N[C@H]3CC[C@H](O)CC3)n2)ccn1` [Compound 11, trans-4-((5-(1-cyclopentylpiperidin-4-yl)-2-((2-methylpyridin-4-yl)amino)pyrimidin-4-yl)amino)cyclohexan-1-ol], the IC50 in assay [1] (setting [3]) was less than 0.01 µM; in assay [2], 0.01 to 0.1 µM.
Regarding `O[C@H]1CC[C@H](Nc2nc(Nc3ccnc(Cl)c3)ncc2C2CCN(C3CCCC3)CC2)CC1` [Compound 12], the IC50 in assay [1] (setting [3]) and in assay [2] (setting [4]) was less than 0.01 µM in each case.
Consider `O[C@H]1CC[C@H](Nc2nc(Nc3ccnc(C(F)(F)F)c3)ncc2C2CCN(C3CCCC3)CC2)CC1` [Compound 13], for which the results for the IC50 in assay [1] and in assay [2] were less than 0.01 µM and 0.01 to 0.1 µM, respectively.
The like results for `NC(=O)c1cc(Nc2ncc(C3CCN(C4CCCC4)CC3)c(N[C@H]3CC[C@H](O)CC3)n2)ccn1` [Compound 14] were, in that order, 0.01 to 0.1 µM and 0.01 to 0.1 µM.
Turning to `Cc1cc(Nc2ncc(C3CCN(CC4CCCC4)CC3)c(N[C@H]3CC[C@H](O)CC3)n2)ccn1` [Compound 15], the half-maximal inhibitory concentration (IC50) in assay [1] (setting [3]) is less than 0.01 µM; in assay [2] it was 0.01 to 0.1 µM.
Regarding `O[C@H]1CC[C@H](Nc2nc(Nc3ccnc(Cl)c3)ncc2C2CCN(CC3CCCC3)CC2)CC1` [Compound 16], the half-inhibitory concentration (IC50) in assay [1] (setting [3]) and in assay [2] (setting [4]) was less than 0.01 µM in each case.
For `O[C@H]1CC[C@H](Nc2nc(Nc3ccnc(C(F)(F)F)c3)ncc2C2CCN(CC3CCCC3)CC2)CC1` [Compound 17], the IC50 in assay [1] and in assay [2] was 0.01 to 0.1 µM in each case.
With `CC(F)(F)c1cc(Nc2ncc(C3CCN(CC4CCCC4)CC3)c(N[C@H]3CC[C@H](O)CC3)n2)ccn1` [Compound 18], the IC50 in assay [1] (setting [3]) and in assay [2] (setting [4]) was less than 0.01 µM each time.
Take `Cc1cc(Nc2ncc(C3CCN(CC4CCCC4)CC3)c(N[C@H]3CC[C@H](O)CC3)n2)cc(C)n1` [Compound 19]: the IC50 lay within 0.1 to 1 µM in assay [1] and 0.01 to 0.1 µM in assay [2].
`NC(=O)c1cc(Nc2ncc(C3CCN(CC4CCCC4)CC3)c(N[C@H]3CC[C@H](O)CC3)n2)ccn1` [Compound 20]: the figures for the concentration for half-maximal inhibition (IC50) in assay [1] (setting [3]) and in assay [2] were less than 0.01 µM and 0.01 to 0.1 µM, respectively.
Consider `COc1cc(Nc2ncc(C3CCNCC3)c(N[C@H]3CC[C@H](NC(C)=O)CC3)n2)ccn1` [Compound 21], for which the half-maximal inhibitory concentration (IC50) in assay [1] and in assay [2] was 0.01 to 0.1 µM each time.
As for `COc1cc(Nc2ncc(C3CCN(C4CCCC4)CC3)c(N[C@H]3CC[C@H](NC(C)=O)CC3)n2)ccn1` [Compound 22], the IC50 is 0.1 to 1 µM in assay [1] and 1 to 30 µM in assay [2].
`COc1cc(Nc2ncc(C3CCN(C4CCCC4)CC3)c(N[C@H]3CC[C@H](N)CC3)n2)ccn1` [Compound 23]: the 50% inhibitory concentration (IC50) is less than 0.01 µM in assay [1] (setting [3]) and 0.01 to 0.1 µM in assay [2].
In the case of `COc1cc(Nc2ncc(C3CCN(C4CCCC4)CC3)c(N[C@H]3CC[C@H](N(C)C)CC3)n2)ccn1` [Compound 24], the values for the half-inhibitory concentration (IC50) in assay [1] and in assay [2] were 0.01 to 0.1 µM and 0.1 to 1 µM, respectively.
In the case of `COc1cc(Nc2ncc(C3CCN(C4CCCC4)CC3)c(N[C@H]3CC[C@H](O)CC3)n2)ccn1` [Compound 25], the IC50 in assay [1] (setting [3]) is less than 0.01 µM; in assay [2] it was 0.01 to 0.1 µM.
Take `COc1cc(Nc2ncc(C3CCN(C(=O)C4CCCC4)CC3)c(N[C@H]3CC[C@H](O)CC3)n2)ccn1` [Compound 26, Cyclopentyl(4-(4-((trans-4-hydroxycyclohexyl)amino)-2-((2-methoxypyridin-4-yl)amino)pyrimidin-5-yl)piperidin-1-yl)methanone]: the IC50 in assay [1] and in assay [2] was 0.01 to 0.1 µM in each case.
As for `O[C@H]1CC[C@H](Nc2nc(Nc3ccnc(Cl)c3)ncc2C2CCN(CC3COC3)CC2)CC1` [Compound 28], the IC50 in assay [1] and in assay [2] was 0.01 to 0.1 µM in each case.
Take `CN1CCC(CN2CCC(c3cnc(Nc4ccnc(Cl)c4)nc3N[C@H]3CC[C@H](O)CC3)CC2)CC1` [Compound 29]: the IC50 in assay [1] and in assay [2] was 0.01 to 0.1 µM throughout.
Consider `O[C@H]1CC[C@H](Nc2nc(Nc3ccnc(Cl)c3)ncc2C2CCN(CC3CCC(F)(F)CC3)CC2)CC1` [Compound 30], for which the concentration for half-maximal inhibition (IC50) in assay [1] (setting [3]) and in assay [2] (setting [4]) was less than 0.01 µM throughout.
In the case of `Cc1cc(CN2CCC(c3cnc(Nc4ccnc(Cl)c4)nc3N[C@H]3CC[C@H](O)CC3)CC2)no1` [Compound 31], the IC50 in assay [1] (setting [3]) is less than 0.01 µM; in assay [2], 0.01 to 0.1 µM.
For `O[C@H]1CC[C@H](Nc2nc(Nc3ccnc(Cl)c3)ncc2C2CCN(Cc3ccccc3)CC2)CC1` [Compound 32], the figures for the half-maximal inhibitory concentration (IC50) in assay [1] (setting [3]) and in assay [2] were less than 0.01 µM and 0.01 to 0.1 µM, respectively.
Consider `O[C@H]1CC[C@H](Nc2nc(Nc3ccnc(Cl)c3)ncc2C2CCN(CC3CCC3)CC2)CC1` [Compound 33], for which the IC50 in assay [1] (setting [3]) and in assay [2] (setting [4]) was less than 0.01 µM in each case.
For the compound `O[C@H]1CC[C@H](Nc2nc(Nc3ccnc(Cl)c3)ncc2C2CCN(CC3CCOCC3)CC2)CC1` [Compound 34], the 50% inhibitory concentration (IC50) in assay [1] (setting [3]) was less than 0.01 µM; in assay [2] it was 0.01 to 0.1 µM.
Take `O[C@H]1CC[C@H](Nc2nc(Nc3ccnc(F)c3)ncc2C2CCNCC2)CC1` [Compound 37]: the IC50 in assay [1] (setting [3]) is less than 0.01 µM; in assay [2], 0.01 to 0.1 µM.
Consider `O[C@H]1CC[C@H](Nc2nc(Nc3ccnc(C4CC4)c3)ncc2C2CCNCC2)CC1` [Compound 41], for which the IC50 in assay [1] and in assay [2] was 0.01 to 0.1 µM in each case.
With `O[C@H]1CC[C@H](Nc2nc(Nc3ccnc(N4CCCC4)c3)ncc2C2CCNCC2)CC1` [Compound 43], the IC50 in assay [1] was 0.1 to 1 µM; in assay [2] it was 1 to 30 µM.
For `CN1CCN(c2cc(Nc3ncc(C4CCNCC4)c(N[C@H]4CC[C@H](O)CC4)n3)ccn2)CC1` [Compound 44], in that order: 0.01 to 0.1 µM and 0.1 to 1 µM.
For `O[C@H]1CC[C@H](Nc2nc(Nc3ccnc(N4CCCCC4)c3)ncc2C2CCNCC2)CC1` [Compound 45], in that order: 1 to 30 µM and 1 to 30 µM.
As to `O[C@H]1CC[C@H](Nc2nc(Nc3ccnc(Cl)c3)ncc2C2CCN(CC3CC3)CC2)CC1` [Compound 46], the half-maximal inhibitory concentration (IC50) in assay [1] (setting [3]) and in assay [2] (setting [4]) was less than 0.01 µM in each case.
Regarding `O[C@H]1CC[C@H](Nc2nc(Nc3ccnc(Cl)c3)ncc2C2CCN(c3ccccc3)CC2)CC1` [Compound 47, trans-4-((2-((2-Chloropyridin-4-yl)amino)-5-(1-phenylpiperidin-4-yl)pyrimidin-4-yl)amino)cyclohexan-1-ol], the IC50 in assay [1] and in assay [2] was 0.01 to 0.1 µM in each case.
With `CC1(C)CC(N2CCC(c3cnc(Nc4ccnc(Cl)c4)nc3N[C@H]3CC[C@H](O)CC3)CC2)C1` [Compound 48], the IC50 in assay [1] (setting [3]) and in assay [2] (setting [4]) was less than 0.01 µM throughout.
For `O[C@H]1CC[C@H](Nc2nc(Nc3ccnc(Cl)c3)ncc2C2CCN(C3CC(C4CC4)C3)CC2)CC1` (stereo partly drawn) [Compound 49], the IC50 in assay [1] (setting [3]) and in assay [2] (setting [4]) was less than 0.01 µM in each case.
For `N#Cc1cc(Nc2ncc(C3CCN(CC4CCCC4)CC3)c(N[C@H]3CC[C@H](O)CC3)n2)ccn1` [Compound 55], the IC50 in assay [1] (setting [3]) is less than 0.01 µM; in assay [2], 0.01 to 0.1 µM.
For `N#Cc1cc(Nc2ncc(C3CCN(CC4CCC(F)(F)CC4)CC3)c(N[C@H]3CC[C@H](O)CC3)n2)ccn1` [Compound 56], in that order: less than 0.01 µM and 0.01 to 0.1 µM.

As usually defined, the IC50 is the concentration needed to halve the response being measured. High values mean lower potency, low ones higher potency.

Source of the values: US12448365B2, “Aryl aminopyrimidines as dual MerTK and TYRO3 inhibitors and methods thereof” (The University of North Carolina at Chapel Hill, priority 2019, dated 2025).
